Data taken from patent US7265130B2, “NPY Y5 antagonist” (Shionogi & Co., Ltd., priority 1999, dated 2007).

Key:
NPY Y1 receptor = target: T1, NPY Y1 receptor (Homo sapiens, UniProt P25929); assay: Affinity for NPY Y1 receptor (membranes from SK-N-MC cells); conditions: membranes from Y1-expression cells (human neuroblastoma, SK-N-MC); read-out: Binding IC50 for NPY Y1 receptor
T1 construct: membranes prepared from Y1-expression cells (human neuroblastoma, SK-N-MC); endogenous in cells; host or cells: SK-N-MC human neuroblastoma cells (membranes)
T1 sequence (P25929 1-384): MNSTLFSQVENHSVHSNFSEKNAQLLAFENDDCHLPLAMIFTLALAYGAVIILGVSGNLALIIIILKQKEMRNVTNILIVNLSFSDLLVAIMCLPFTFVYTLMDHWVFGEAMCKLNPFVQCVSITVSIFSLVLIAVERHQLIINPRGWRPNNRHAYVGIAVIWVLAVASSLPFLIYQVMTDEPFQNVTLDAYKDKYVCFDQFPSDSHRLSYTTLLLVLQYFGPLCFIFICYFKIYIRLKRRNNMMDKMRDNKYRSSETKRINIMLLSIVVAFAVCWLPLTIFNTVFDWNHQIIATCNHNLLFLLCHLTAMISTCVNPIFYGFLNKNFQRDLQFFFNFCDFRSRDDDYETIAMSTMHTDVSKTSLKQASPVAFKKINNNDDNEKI
Experimental: (§1) The membranes prepared from the above CHO cells expressing NPY Y5 receptor, the compound of the present invention and 30,000 cpm [^125I] peptide YY (60 pM of final concentration: Amersham) were incubated in the assay buffer (20 mM HEPES-Hanks buffer containing 0.1% bovine serum albumin, pH 7.4) at 25° C. for 2 hours, and then the mixture was filtered with a glassfilter GF/C treated with polyethyleneimine. After the glassfilter was washed with 50 mM Tris-HCl buffer (pH 7.4), the radioactivity on the filter was measured with a gamma counter. The non-specific binding was detected in the presence of 200 nM of peptide YY. The 50% inhibitory concentration of the test compound against the specific peptide YY binding (IC50 value) was calculated (Inui, A. et al. Endocrinology 131, 2090-2096 (1992)).
(§2) Using the membranes prepared from Y1-expression cells (human neuroblastoma, SK-N-MC) and the membranes prepared from Y2-expression cells (human neuroblastoma, SMS-KAN), the experiment was carried out in a similar way as Experiment 1 to determine the affinity for NPY Y1 receptor and NPY Y2 receptor.

NPY Y2 receptor = target: T2, NPY Y2 receptor (Homo sapiens, UniProt P49146); assay: Affinity for NPY Y2 receptor (membranes from SMS-KAN cells); conditions: membranes from Y2-expression cells (human neuroblastoma, SMS-KAN); read-out: Binding IC50 for NPY Y2 receptor
T2 construct: membranes prepared from Y2-expression cells (human neuroblastoma, SMS-KAN); endogenous in cells; host or cells: SMS-KAN human neuroblastoma cells (membranes)
T2 sequence (P49146 1-381): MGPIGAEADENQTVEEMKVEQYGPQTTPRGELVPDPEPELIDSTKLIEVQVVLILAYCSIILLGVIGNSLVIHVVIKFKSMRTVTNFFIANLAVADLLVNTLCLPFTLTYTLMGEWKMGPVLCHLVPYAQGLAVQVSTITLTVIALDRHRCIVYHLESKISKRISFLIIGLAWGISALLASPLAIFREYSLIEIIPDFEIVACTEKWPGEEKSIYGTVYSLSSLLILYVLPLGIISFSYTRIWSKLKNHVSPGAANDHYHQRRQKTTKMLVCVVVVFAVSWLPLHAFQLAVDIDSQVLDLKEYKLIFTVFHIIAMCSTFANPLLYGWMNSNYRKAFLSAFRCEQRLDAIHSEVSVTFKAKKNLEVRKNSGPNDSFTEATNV
Experimental: as §1, §2

human NPY Y5 receptor [1] = target: T3, human NPY Y5 receptor (Homo sapiens, UniProt Q15761); assay: Affinity for NPY Y5 receptor ([125I] peptide YY binding, CHO cell membranes); conditions: inhibition of specific [125I] peptide YY binding, membranes of CHO cells expressing NPY Y5 receptor
T3 construct: expressed in transfected cells
T3 sequence (Q15761 1-445): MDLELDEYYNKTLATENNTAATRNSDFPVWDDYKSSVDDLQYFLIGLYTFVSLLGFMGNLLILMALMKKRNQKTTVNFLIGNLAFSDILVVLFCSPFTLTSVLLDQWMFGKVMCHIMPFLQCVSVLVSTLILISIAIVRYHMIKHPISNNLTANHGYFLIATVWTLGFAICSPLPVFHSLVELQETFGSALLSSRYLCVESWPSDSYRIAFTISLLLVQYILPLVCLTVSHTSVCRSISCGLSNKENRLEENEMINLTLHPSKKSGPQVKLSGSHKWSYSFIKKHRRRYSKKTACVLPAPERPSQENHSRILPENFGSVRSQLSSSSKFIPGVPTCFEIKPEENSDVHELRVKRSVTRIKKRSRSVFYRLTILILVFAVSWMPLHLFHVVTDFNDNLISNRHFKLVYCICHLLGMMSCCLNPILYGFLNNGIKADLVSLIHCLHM
Procedure, shortened: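 Membranes from CHO cells stably expressing human NPY Y5 receptor incubated with test compound and [125I] peptide YY (60 pM final) in HEPES-Hanks buffer with 0.1% BSA, pH 7.4, 25° C for 2 hours. Filter-bound radioactivity counted; non-specific binding with 200 nM peptide YY; IC50 against specific binding calculated.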

human NPY Y5 receptor [2] = target: T3, human NPY Y5 receptor; assay: cAMP production inhibitory activity in CHO cells; format: cell-based; conditions: against 50 nM NPY inhibition of forskolin stimulated cAMP, CHO cells expressing human NPY Y5 receptor
Procedure, shortened: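 CHO cells expressing human NPY Y5 receptor preincubated 20 min at 37 °C with 2.5 mM IBMX, then with compound for 5 min. Stimulated with 50 nM NPY plus 10 μM forskolin for 30 min. Reaction stopped with 1N HCl; supernatant cAMP measured by EIA.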

| Compound | IC50 (NPY Y1 receptor) [µM] | IC50 (NPY Y2 receptor) [µM] | IC50 (human NPY Y5 receptor [1]) [nM] | IC50 (human NPY Y5 receptor [2]) [nM] |
| --- | --- | --- | --- | --- |
| CCCCc1ccc(NC(=O)CCCNS(=O)(=O)C(C)(C)C)cc1 [Compound I-27] | ≥ 100 | ≥ 100 |  |  |
| CCCCc1ccc(C(=O)NC2CCC(NS(=O)(=O)C(C)(C)C)CC2)cc1 (centres unmarked) [Compound I-32] | ≥ 100 | ≥ 100 |  |  |
| CC(C)(C)S(=O)(=O)NC1CCC(C(=O)Nc2ccc(N3CCOCC3)cc2)CC1 (centres unmarked) [Compound I-41] | ≥ 100 | ≥ 100 | 5.3 | 38.2 |
| CC(C)(C)S(=O)(=O)NC1CCC(C(=O)Nc2ccc(N3CCCCC3)cc2)CC1 (centres unmarked) [Compound I-45] | ≥ 100 | ≥ 100 | 1.2 | 27.9 |
| CCn1c2ccccc2c2cc(NC(=O)C3CCC(NS(=O)(=O)C(C)(C)C)CC3)ccc21 (centres unmarked) [Compound I-46] | ≥ 100 | ≥ 100 | 0.8 | 10.5 |
| CC(C)(C)S(=O)(=O)NC1CCC(C(=O)Nc2ccc(I)cc2)CC1 (centres unmarked) [Compound I-47] | ≥ 100 | ≥ 100 | 0.6 | 14.9 |
| CC(C)(C)S(=O)(=O)NC1CCC(C(=O)Nc2ccc(F)cc2)CC1 (centres unmarked) [Compound I-48] | ≥ 100 | ≥ 100 |  |  |
| CC(C)(C)S(=O)(=O)NC1CCC(C(=O)Nc2ccc(N3CCCC3)cc2)CC1 (centres unmarked) [Compound I-49] | ≥ 100 | ≥ 100 | 0.4 | 8.1 |
| CC(C)(C)S(=O)(=O)NC1CCC(C(=O)Nc2ccc(N3CC=CCC3)cc2)CC1 (centres unmarked) [Compound I-59] | ≥ 100 | ≥ 100 | 0.8 | 35 |
| CC(C)(C)S(=O)(=O)NC1CCC(C(=O)Nc2ccc(-n3cccc3)cc2)CC1 (centres unmarked) [Compound I-61] | ≥ 100 | ≥ 100 | 0.26 | 5.3 |
| CC(C)(C)S(=O)(=O)NC1CCC(C(=O)Nc2ccc(Br)cc2)CC1 (centres unmarked) [Compound I-63] | ≥ 100 | ≥ 100 | 1.3 | 50 |
| CC(C)(C)S(=O)(=O)NC1CCC(C(=O)Nc2ccc3c(c2)OCO3)CC1 (centres unmarked) [Compound I-64] | ≥ 100 | ≥ 100 | 2.2 | 80 |
| Cc1cc(=O)oc2cc(NC(=O)C3CCC(NS(=O)(=O)C(C)(C)C)CC3)ccc12 (centres unmarked) [Compound I-66] | ≥ 100 | ≥ 100 | 1.5 | 30 |
| CN(C)c1cccc(NC(=O)C2CCC(NS(=O)(=O)C(C)(C)C)CC2)c1 (centres unmarked) [Compound I-69] | ≥ 100 | ≥ 100 | 3.8 | 13 |
| C[C@@H]1CN(c2ccc(NC(=O)[C@H]3CC[C@H](NS(=O)(=O)C(C)(C)C)CC3)cc2)C[C@H](C)O1 [Compound I-72] | ≥ 100 | ≥ 100 | 2.3 | 2.1 |
| CC(C)(C)S(=O)(=O)NC1CCC(C(=O)NCCSc2cc(C(F)(F)F)nc3ccccc23)CC1 (centres unmarked) [Compound I-152] | ≥ 100 | ≥ 100 | 0.88 | 46 |
| CC(C)(C)S(=O)(=O)NC1CCC(C(=O)NCc2cccc3ccccc23)CC1 (centres unmarked) [Compound I-154] | ≥ 100 | ≥ 100 | 1.1 | 11 |

| Compound | IC50 (NPY Y1 receptor) [µM] | IC50 (NPY Y2 receptor) [µM] | IC50 (human NPY Y5 receptor [1]) [nM] | IC50 (human NPY Y5 receptor [2]) [nM] |
| --- | --- | --- | --- | --- |
| CC(C)(C)S(=O)(=O)NC1CCC(C(=O)Nc2ccc3c(c2)CCC3)CC1 (centres unmarked) [Compound I-204] | ≥ 100 | ≥ 100 | 1 | 6.3 |
| CC(C)NC(=O)c1cccc(NC(=O)C2CCC(NS(=O)(=O)C(C)(C)C)CC2)c1 (centres unmarked) [Compound I-205] | ≥ 100 | ≥ 100 | 2.9 | 17 |
| CC(C)(C)S(=O)(=O)NC1CCC(C(=O)Nc2ccc(C(F)(F)F)cc2)CC1 (centres unmarked) [Compound I-212] | ≥ 100 | ≥ 100 | 0.67 | 7.5 |
| CC(C)S(=O)(=O)NCCCCC(=O)Nc1ccc(N2C[C@@H](C)O[C@@H](C)C2)cc1 [Ia-3] | ≥ 100 | ≥ 100 | 9.2 | 150 |
| C[C@@H]1CN(c2ccc(NC(=O)CCCCNS(=O)(=O)C(C)(C)C)cc2)C[C@H](C)O1 [Ia-5] | ≥ 100 | ≥ 100 | 1.6 | 43 |
| CC(C)S(=O)(=O)NC1CCC(C(=O)Nc2ccc(N3C[C@@H](C)O[C@@H](C)C3)cc2)CC1 (some centres unmarked) [Ia-6] | ≥ 100 | ≥ 100 | 2.4 | 23 |
| CCC(C)c1ccc(NC(=O)C2CCC(NS(=O)(=O)C(C)(C)C)CC2)cc1 (centres unmarked) [Ia-12] | ≥ 100 | ≥ 100 | 0.94 | 5.5 |
| COc1ccc(NC(=O)C2CCC(NS(=O)(=O)C(C)(C)C)CC2)cc1 (centres unmarked) [Ia-16] | ≥ 100 | ≥ 100 | 0.1 |  |
| CC(C)(C)S(=O)(=O)NC1CCC(C(=O)Nc2ccc(OC(F)(F)F)cc2)CC1 (centres unmarked) [Ia-17] | ≥ 100 | ≥ 100 | 0.1 | 1.9 |
| CC(C)(C)S(=O)(=O)NC1CCC(C(=O)Nc2cccc(F)c2)CC1 (centres unmarked) [Ia-20] | ≥ 100 | ≥ 100 | 4.9 | 100 |
| C[C@@H]1CN(c2ccc(NC(=O)[C@H]3CC[C@H](NS(=O)(=O)C(C)(C)C)CC3)cc2F)C[C@H](C)O1 [Ia-21] | ≥ 100 | ≥ 100 | 3.4 | 35 |
| Cc1cc(NC(=O)[C@H]2CC[C@H](NS(=O)(=O)C(C)(C)C)CC2)ccc1N1C[C@@H](C)O[C@@H](C)C1 [Ia-22] | ≥ 100 | ≥ 100 | 3.1 | 38 |
| C[C@@H]1CN(c2ccc(NC(=O)C3CCC(NS(=O)(=O)C(C)(C)C)CC3)c(F)c2)C[C@H](C)O1 (some centres unmarked) [Ia-26] | ≥ 100 | ≥ 100 | 1.9 | 27 |
| Cc1cc(N2C[C@@H](C)O[C@@H](C)C2)ccc1NC(=O)C1CCC(NS(=O)(=O)C(C)(C)C)CC1 (some centres unmarked) [Ia-28] | ≥ 100 | ≥ 100 | 5.2 | 130 |
| C[C@@H]1CN(c2ccc(NC(=O)C3CCC(NS(=O)(=O)C(C)(C)C)CC3)c(F)c2F)C[C@H](C)O1 (some centres unmarked) [Ia-29] | ≥ 100 | ≥ 100 | 1 | 7.3 |
| C[C@@H]1CN(c2c(F)c(F)c(NC(=O)C3CCC(NS(=O)(=O)C(C)(C)C)CC3)c(F)c2F)C[C@H](C)O1 (some centres unmarked) [Ia-30] | ≥ 100 | ≥ 100 | 2.6 | 25 |
